# Assay results as given in patent EP0369088A1, “Use of zinc acexamate in the prophylaxis of gastropathy induced by non-steroidal anti-inflammatory drugs” (LABORATORIOS VINAS S.A., priority 1988, dated 1990).
# Columns and labels:
# Format in all cases: in vivo, rat (Sprague Dawley)
# [1] = test system: Ibuprofen-induced lesions; assay: Ibuprofen-induced gastric lesions in the rat, protective effect of ZAC; conditions: ibuprofen single 200 mg/kg dose, mean ± SD; for Macroscopic index: n 10, control 2.4 ± 0.3; for Microscopic index: scale 0 to 5, n 5, control 2.8 ± 0.4
# From the text: (§1) In view of the more or less serious gastric intolerance to the different anti-inflammatory drugs, the possibility of inhibiting this side effect by way of the protective action of zinc […]) has been considered. Therefore, the protective effect of ZAC against gastric lesions induced by the most characteristic NSAIDs has been studied. The animal of election was the rat (Sprague Dawley), which was sacrificed after treatment with ZAC and NSAID. The stomach was extirpated, and macro and microscopic evaluations were made. The macroscopic evaluation was made following the method of Adami (1964, Arch. Int. Pharmacodyn., 147: 113-45) with slight modifications, consisting of evaluating the gravity and extension of the lesions, using a points system evaluating the lesions according to the number and/or size thereof. 0 - no lesion 1 - irritation or presence of a hemorrhagic area 2 - from 1 to 5 small ulcers 3 - many small ulcers (more than 5) or 1 large one 4 - many large ulcers 5 - perforated ulcer The overall value of the lesions is obtained by adding up the score of the lesions determined. Half of the stomachs of each animal group was taken for hystological processing, the microscopic lesions being valued according to a scale of 0 to 5, 0 being a lesion-free mucous membrane and 5 representing multiple erosions with hemorrhagic subfusions. a single 200 mg/kg dose was administered. In both cases, ZAC was tested at dosages of: 50, 100 and 150 mg/kg and a control group received water.
# Aspirin-induced lesions = assay: Aspirin-induced gastric lesions in the rat, protective effect of ZAC; conditions: aspirin two doses of 200 mg/kg p.o. 12 hours apart, mean ± SD, n 10, p<0.01; for Macroscopic index: control 3.4 ± 0.2; for Microscopic index: scale 0 to 5, control 3.0 ± 0.3
# From the text: as §1, with “two doses of” for “a single”, “p.o. were administered spaced apart by 12 hours.” for “dose was administered.”
# [2] = test system: Indomethacin-induced lesions; assay: Indomethacin-induced gastric lesions in the rat, protective effect of ZAC; conditions: ZAC 200 mg/kg, indomethacin total 20 mg/kg in two doses of 10 mg/kg 12 hours apart, mean ± SD, p<0.01
# From the text: as §1, with “a single 200 mg/kg dose was administered. In both cases, ZAC was tested at dosages of: 50, 100 and 150 mg/kg and a control group received water.” left out
# [3] = test system: Phenylbutazone-induced lesions; assay: Phenylbutazone-induced gastric lesions in the rat, protective effect of ZAC; conditions: phenylbutazone total dose 80 mg/kg in two halves 2 hours apart, mean ± SD, n 10, control 2.8 ± 0.4, p<0.01
# From the text: In view of the more or less serious gastric intolerance to the different anti-inflammatory drugs, the possibility of inhibiting this side effect by way of the protective action of zinc acexamate (ZAC) has been considered. Therefore, the protective effect of ZAC against gastric lesions induced by the most characteristic NSAIDs has been studied. The animal of election was the rat (Sprague Dawley), which was sacrificed after treatment with ZAC and NSAID. The stomach was extirpated, and macro and microscopic evaluations were made. The macroscopic evaluation was made following the method of Adami (1964, Arch. Int. Pharmacodyn., 147: 113-45) with slight modifications, consisting of evaluating the gravity and extension of the lesions, using a points system evaluating the lesions according to the number and/or size thereof. 0 - no lesion 1 - irritation or presence of a hemorrhagic area 2 - from 1 to 5 small ulcers 3 - many small ulcers (more than 5) or 1 large one 4 - many large ulcers 5 - perforated ulcer
# The overall value of the lesions is obtained by adding up the score of the lesions determined.
# An additional, anti-ulcer activity index was calculated for phenylbutazone, obtained by expressing the lesion indexes as an inhibition percentage relative to the control group. The dose-response curve was determined from the percentages and the theoretical ED₅₀ was determined from the curve.
# A total dose of 80 mg/kg of phenylbutazone was administered, half at the start of the experiment and the other half after 2 hours. The ZAC doses used were 75, 150 and 300 mg/kg. The animals were sacrificed 4 hours after the last ZAC administration.
substance,measurement,setting,value
zinc acexamate [ZAC],Macroscopic index,"[1]; ZAC 50 mg/kg, p<0.01",1.6 ± 0.4
same,Microscopic index,"[1]; ZAC 50 mg/kg, p<0.05",2.2 ± 0.2
same,Macroscopic index,"[1]; ZAC 100 mg/kg, p<0.01",1.7 ± 0.3
same,Microscopic index,"[1]; ZAC 100 mg/kg, NS",2.4 ± 0.2 NS
same,Macroscopic index,"[1]; ZAC 150 mg/kg, p<0.01",1.5 ± 0.2
same,Microscopic index,"[1]; ZAC 150 mg/kg, p<0.01",2.0 ± 0.03
same,Macroscopic index,Aspirin-induced lesions; ZAC 50 mg/kg,2.3 ± 0.3
same,Microscopic index,Aspirin-induced lesions; ZAC 50 mg/kg,1.8 ± 0.2
same,Macroscopic index,Aspirin-induced lesions; ZAC 100 mg/kg,2.1 ± 0.3
same,Microscopic index,Aspirin-induced lesions; ZAC 100 mg/kg,2.0 ± 0.2
same,Macroscopic index,Aspirin-induced lesions; ZAC 150 mg/kg,1.9 ± 0.3
same,Microscopic index,Aspirin-induced lesions; ZAC 150 mg/kg,2.3 ± 0.2
same,Macroscopic index,"[2]; n 10, control 4.3 ± 0.4",1.8 ± 0.3
same,Microscopic index,"[2]; scale 0 to 5, n 5, control 4.0 ± 0.7",5 2.1 ± 0.2
same,Macroscopic index,[3]; ZAC 75 mg/kg,1.3 ± 0.5
same,Macroscopic index,[3]; ZAC 150 mg/kg,0.4 ± 0.3
same,Macroscopic index,[3]; ZAC 300 mg/kg,2.0 ± 0.2
